Molecular target: Tryptophan 2,3-dioxygenase (Homo sapiens, UniProt P48775)
Assay: Assay for TDO2 enzymatic activity determination: To measure the TDO2 activity, the procedure described in Dolusic et al. J. Med. Chem.; 2011, 54, […] was adapted: the reaction mixture contained (final concentrations) potassium phosphate buffer (50 mM, pH 7.5), ascorbic acid (0.25 M), methylene blue (0.125 μM), catalase (40 units/mL, from bovine liver, Sigma), and human recombinant TDO2 enzyme (prepared as described in Dolusic et al. J. Med. Chem.; 2011, 54, 5320-5334; 0.9 μg) without or with the compounds of the present invention at the indicated concentrations (total volume 112.5 μL). The reaction was initiated by the addition of 37.5 μL of L-Trp (final concentration 1 mM) at room temperature. The reaction was conducted at room temperature during one hour and stopped by the addition of 30 μL of 30% (w/v) trichloroacetic acid.To convert N-formylkynurenine into kynurenine, the reaction mixture was incubated at 65° C. for 30 min. Then 150 μL of the reaction mixture was mixed with 120 μL of 2.5% (w/v) 4-(dimethylamino)-benzaldehyde in acetic acid and incubated for 5 min at room temperature. Kynurenine concentrations were determined by measuring the absorbance at 480 nm. A standard curve was made with pure kynurenine. The TDO activity was measured as described above using ten serial concentrations of the compounds of the present invention. […]

Tryptophan 2,3-dioxygenase, sequence (P48775 whole entry): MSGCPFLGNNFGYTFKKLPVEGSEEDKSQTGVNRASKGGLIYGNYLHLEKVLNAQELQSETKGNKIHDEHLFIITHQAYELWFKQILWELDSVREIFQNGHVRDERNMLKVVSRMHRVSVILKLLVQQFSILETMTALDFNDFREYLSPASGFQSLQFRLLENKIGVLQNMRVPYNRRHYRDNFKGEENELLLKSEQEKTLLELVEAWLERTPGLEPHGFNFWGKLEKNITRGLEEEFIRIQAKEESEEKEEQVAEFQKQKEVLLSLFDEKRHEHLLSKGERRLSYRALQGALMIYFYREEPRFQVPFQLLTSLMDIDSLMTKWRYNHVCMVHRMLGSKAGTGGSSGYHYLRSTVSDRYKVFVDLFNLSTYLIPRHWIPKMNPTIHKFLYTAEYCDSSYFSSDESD

SMILES: C[C@@H](CO)NS(=O)(=O)c1ccc(-c2c[nH]c3cc(F)ccc23)cc1
- IC50: 840 nM

Source: ChEMBL document CHEMBL5727488, “3-indol substituted derivatives, pharmaceutical compositions and methods for use” (2020)
